Measured values from PubChem BioAssay (NCI).
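How tested: cells in 96-well plates exposed to compound for 48 hours at five concentrations. GI50 = concentration required for 50% inhibition of growth. TGI denotes the concentration required for complete inhibition of growth.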

Assays:
Test in all cases: growth of human tumour cells (NCI), 48 h
CCRF-CEM leukemia = test system: CCRF-CEM leukemia
EKVX NSCLC = test system: EKVX NSCLC
KM12 colon = test system: KM12 colon
SF-268 CNS = test system: SF-268 CNS
U251 CNS = test system: U251 CNS
A549 NSCLC = test system: A549 NSCLC
BT-549 breast = test system: BT-549 breast
DU-145 prostate = test system: DU-145 prostate
MDA-MB-435 = test system: MDA-MB-435
NCI/ADR-RES ovarian = test system: NCI/ADR-RES ovarian

SMILES	TGI (CCRF-CEM leukemia) [µM]	TGI (EKVX NSCLC) [µM]	TGI (KM12 colon) [µM]	TGI (SF-268 CNS) [µM]	TGI (U251 CNS) [µM]	TGI (A549 NSCLC) [µM]	GI50 (A549 NSCLC) [µM]	GI50 (BT-549 breast) [µM]	TGI (BT-549 breast) [µM]	GI50 (CCRF-CEM leukemia) [µM]	GI50 (DU-145 prostate) [µM]	TGI (DU-145 prostate) [µM]	GI50 (KM12 colon) [µM]	GI50 (MDA-MB-435) [µM]	TGI (MDA-MB-435) [µM]	GI50 (NCI/ADR-RES ovarian) [µM]	TGI (NCI/ADR-RES ovarian) [µM]	GI50 (SF-268 CNS) [µM]	GI50 (U251 CNS) [µM]	GI50 (EKVX NSCLC) [µM]
Cc1ccccc1C1=[N+]([O-])c2ccccc2C1=O	54.5	35.4	25.9	36.8	31															
Nc1nc2sc3ccccc3c(=O)n2n1	> 100	> 100	> 100	> 100	> 100	> 100														
CC/C(=C(/c1ccc(OCCN(C)C)cc1)c1ccc(OC(=O)CCC(=O)c2c(C)[nH]c(/C=C3\N=C(c4ccc[nH]4)C=C3OC)c2C)cc1)c1ccccc1	6.34		10	17.8	6.23	10.6	2.63	3.5	20.4	0.435	3.27	16.8	1.21	2.56	10.2	3.62	15.9	2.62	1.46	
Cn1cc(C2=C(c3cccc(N)c3)C(=O)NC2=O)c2ccccc21	> 25		> 20	> 25	> 25	> 25	14.1	> 19.3	> 25	11.2	19	> 25	7.95	18.7	> 25	> 19.7	> 25	24.6	10.4	
C#CCN(Cc1nc2cc(C(F)(F)F)ccc2nc1-c1ccccc1)c1ccc(OC(F)(F)F)cc1		> 100	78.8	> 100	> 100	> 100	63.8	44.9	> 100		36.5	> 100	29.1	39.4	> 100	> 100	> 100	47.5	48.8	32.6
CCCCCCc1cc2cc(-c3nc4ccccc4[nH]3)c(=Nc3ccccc3C)oc2cc1O	9.59		11.7	8.45	3.3	6.29	2.44	1.83	3.55	2.77	2.96	7.77	3.27	2.16	5.05	4.24	22.7	2.65	1.71	
Cn1cc(C2=C(c3cn(CCO)c4ccccc34)C(=O)NC2=O)c2ccccc21	> 20		9.4	15.4	13.7	> 25	3.05	3.14	11.9	1.37	6.94	> 23.8	2	0.746	> 25	5.6	> 22	4.19	1.98	
c1ccc2c(c1)sc1c3cnccc3ccc21		> 100	> 100	> 100	> 100	> 100			> 100			> 100			> 100		> 100			
Cc1oc2c(C)c3oc(=O)cc(C)c3cc2c1CNC(=O)[C@@H]1OCCOCCOCCOCCOCCOC1C(=O)O (some centres undefined)	> 100	> 100	> 100	> 100	> 100	> 100														
CCCCCCCC(=O)NCC(O)CNC(=O)CCCCCCC	> 100	> 100	> 100	> 100	> 100	> 100														
CCOC(=O)c1c(-c2ccccc2)oc(-c2ccccc2)c1C(=O)OCC	> 100	> 100	> 100	> 100	> 100	> 100														
CC[O-].CC[O-].O=C([CH-]C(=O)c1cccnc1)c1ccccc1.O=C([CH-]C(=O)c1cccnc1)c1ccccc1.[Ti+4]		> 100	> 100	> 100	> 100	> 100	> 100						32.7					88.3	27.2	> 100
N#Cc1cccc(OCc2nc(N)nc(N)c2-c2ccc(Cl)c(Cl)c2)c1	> 100		82.4	> 100	> 100	> 100	0.426	3.01	> 100	2.03	4.08	> 100	2.96	0.486	> 100	1.19	> 100	3.05	0.749	
Clc1cc2c(cc1Cl)Oc1cc(Cl)c(Cl)cc1O2	> 0.625		> 0.625	> 0.625	> 0.625			> 0.625	> 0.625	> 0.625	> 0.625	> 0.625	> 0.625	> 0.625	> 0.625	> 0.625	> 0.625	> 0.625	> 0.625	
CN(C)CCN(C)CC1COC(C)(C)O1 (centres undefined)	> 100	> 100	> 100	> 100	> 100	> 100														
Cc1cc2cc3cc(C)c(N(C)C)cc3[n+](C)c2cc1N(C)C	> 100		11.3	20.5	21.2	> 100	3.1	2.55	9.62	12.2	4.87	31.9	2.72	3.1	14.9	22.4	> 100	4.1	2.05	
CCC1C(=O)OCc2c1cc1n(c2=O)Cc2cc3ccccc3nc2-1 (centres undefined)		> 100	> 100	> 100	> 43	> 100			> 59.5			> 30.9			> 100		> 64.7			
O=C(C=Nc1ccccc1C(=O)[O-])c1cccs1.O=C(C=Nc1ccccc1C(=O)[O-])c1cccs1.[Co+2]	> 100		> 100	> 100	> 100	> 100														
COc1ccc2c(c1O)C13CCN(C)C(C2)C1CCC1(C3)OCCO1 (centres undefined)		> 100	> 100	> 100	> 100	> 100			> 100			> 100			> 100		> 100			
